Drawing on ChEMBL document CHEMBL3351675, “Novel benzenesulfonylureas containing thiophenylpyrazoline moiety as potential antidiabetic and anticancer agents” (Bioorg Med Chem Lett, 2014), this text covers Activity and inhibition for two compounds.

The structures appear in SMILES notation. The source made the active and inactive calls. The calls are words filed in the database; no cut-off is given here.

In one data set the test system is CCRF-CEM. In words: Anticancer activity against human CCRF-CEM cells assessed as cell growth level at 10 uM after 48 hrs by sulforhodamine B assay. The class given is functional.
Data set [1] deals with Rattus norvegicus. The data set can be described thus: Antidiabetic activity in Wistar rat model of streptozotocin-induced diabetes assessed as reduction in plasma glucose level at 30 mg/kg, po and dosage repeated for 15 days by GOD-POD method. The class given is functional, organism-based. More on the design: dose 30 mg/kg.
Data set [2] is described as follows: Anticancer activity against human MOLT4 cells assessed as cell growth level at 10 uM after 48 hrs by sulforhodamine B assay. In kind it is functional, MOLT-4. (In SRB staining, fixed cells bind dye roughly in proportion to their protein.)
Data set [3] concerns Rattus norvegicus. The data set can be described thus: Effect on body weight in Wistar rat model of streptozotocin-induced diabetes at 30 mg/kg, po measured over 15 days. In kind it is ADME, organism-based. More on the design: dose 30 mg/kg, route oral. As to conditions: in vivo, 360 h.
The nature of data set [4]: Anticancer activity against human BT549 cells assessed as cell growth level at 10 uM after 48 hrs by sulforhodamine B assay. The class given is functional, BT-549.
The next data set concerns A498. In words: Anticancer activity against human A498 cells assessed as cell growth level at 10 uM after 48 hrs by sulforhodamine B assay. The class given is functional.
Another data set relates to Malme-3M. In words: Anticancer activity against human MALME-3M cells assessed as cell growth level at 10 uM after 48 hrs by sulforhodamine B assay. In kind it is functional.
For the next data set, the system named is SR. In words: Anticancer activity against human SR cells assessed as cell growth level at 10 uM after 48 hrs by sulforhodamine B assay. In kind it is functional.
In the next data set the test system is SNB-75. In words: Anticancer activity against human SNB75 cells assessed as cell growth level at 10 uM after 48 hrs by sulforhodamine B assay. In kind it is functional.
The nature of data set [5]: Anticancer activity against human RPMI8226 cells assessed as cell growth level at 10 uM after 48 hrs by sulforhodamine B assay. In kind it is functional, RPMI-8226.
Data set [6] can be described thus: Anticancer activity against human SKOV3 cells assessed as cell growth level at 10 uM after 48 hrs by sulforhodamine B assay. The class given is functional, SK-OV-3.
A short description of data set [7]: Anticancer activity against human UACC257 cells assessed as cell growth level at 10 uM after 48 hrs by sulforhodamine B assay. The class given is functional, UACC-257.
The nature of data set [8]: Anticancer activity against human OVCAR4 cells assessed as cell growth level at 10 uM after 48 hrs by sulforhodamine B assay. In kind it is functional, OVCAR-4.
The test system of a further data set is SF-268. The data set can be described thus: Anticancer activity against human SF268 cells assessed as cell growth level at 10 uM after 48 hrs by sulforhodamine B assay. The class given is functional.
A short description of data set [9]: Anticancer activity against human HCT15 cells assessed as cell growth level at 10 uM after 48 hrs by sulforhodamine B assay. In kind it is functional, HCT-15.
The next data set concerns NCI-H23. The data set can be described thus: Anticancer activity against human NCI-H23 cells assessed as cell growth level at 10 uM after 48 hrs by sulforhodamine B assay. In kind it is functional.
A short description of data set [10]: Anticancer activity against human UACC62 cells assessed as cell growth level at 10 uM after 48 hrs by sulforhodamine B assay. In kind it is functional, UACC-62.
The test system of data set [11] is Rattus norvegicus. The data set can be described thus: Increase in body weight in Wistar rat model of streptozotocin-induced diabetes at 30 mg/kg, po measured over 15 days. In kind it is ADME, organism-based. The arrangement: dose 30 mg/kg, route oral. As to conditions: in vivo, 360 h.

As to `COc1ccc(NC(=O)NS(=O)(=O)c2ccc(N3N=C(c4cccs4)CC3c3ccc(C)s3)cc2)cc1` (centres undefined), the Activity in the data set with CCRF-CEM was 88.12%; in [2] it was 94.7%; in the data set with Rattus norvegicus [3] it was “Non-toxic”; in [4] it was 116.23%; in the data set on A498, 101.86%; in the data set on Malme-3M, 31.15%. In addition, the Activity is listed as 75.83% in the data set on SR; 99.87% with SNB-75; 95.29% in data set [5]; 82.55% in data set [6]; 49.98% in [7]; 102.84% in [8]. Also, the Activity came to 97.85% in the data set with SF-268, 102.46% in data set [9], 97.55% with NCI-H23 and 31% in data set [10]. Also, in the data set on Rattus norvegicus [1], the inhibition result is “Active”.

For the compound `Cc1ccc(NC(=O)NS(=O)(=O)c2ccc(N3N=C(c4cccs4)CC3c3ccc(C)s3)cc2)cc1` (centres undefined), the Activity with CCRF-CEM was 87.89%; in data set [2] it was 94.41%; in the data set on Rattus norvegicus [3] it was “Non-toxic”; in [4], 74.25%; in the data set on A498, 109%; with Malme-3M it was 40.64%. Besides, the Activity in the data set with SR came out at 84.69%; with SNB-75, 93.74%; in data set [5] it was 83.37%; in data set [6], 78.27%; in data set [7], 61.42%; in data set [8], 106.4%. The Activity with SF-268 is given as 95.62%; in data set [9] it was 99.31%; in the data set with Rattus norvegicus [11] it was “Toxic”; in the data set on NCI-H23, 98.53%; in data set [10] it was 40.91%.
